Results reported in PMC6333442, “Conserved allosteric pathways for activation of TRPV3 revealed through engineering vanilloid-sensitivity” (eLife, 2019).

Experiments:
[1] = test system: TRPV3 single point mutants (V587L, F625L, F656I and F666Y); conditions: 2-APB 3 mM, room temperature
Procedure: All channel constructs were expressed in Xenopus laevis oocytes and studied using the two-electrode voltage clamp technique (TEVC) following 1–4 days of incubation after cRNA injection. The animal care and experimental procedures were performed in accordance with the Guide for the Care and Use of Laboratory Animals and were approved by the Animal Care and Use Committee of the National Institute of Neurological Disorders and Stroke (Animal protocol number 1253–17). Oocytes were removed surgically and incubated with agitation for 1 hr in a solution containing (in mM) 82.5 NaCl, 2.5 KCl, 1 MgCl2, 5 HEPES, pH 7.6 (with NaOH), and collagenase (2 mg/ml; Worthington Biochemical, Lakewood, NJ). […]
(§1) For temperature-activation experiments, calcium-activated chloride currents were minimized by using calcium-free solution containing 30 µM Caccinh-A01 and recording at negative membrane voltages. Heat stimuli were achieved by passing the external recording solution through glass capillary spirals immersed in a water bath maintained at about 70°C, and recordings were performed during constant perfusion with temperature measured using a thermistor (TA-29, Warner Instruments) located close to the cell. […] The mean I vs T relations were calculated by automatically binning each of the recordings in temperature intervals of 2°C, and averaging a single data point within each interval per cell. […]

[2] = test system: TRPV3-6M/V2P (pore domain of rat TRPV2 in TRPV3-6M); test: Two-electrode voltage clamp, TRPV3-6M/V2P chimera in oocytes; format: cell-based, mouse; conditions: RTx 100 nM
Procedure: All channel constructs were expressed in Xenopus laevis oocytes and studied using the two-electrode voltage clamp technique (TEVC) following 1–4 days of incubation after cRNA injection. The animal care and experimental procedures were performed in accordance with the Guide for the Care and Use of Laboratory Animals and were approved by the Animal Care and Use Committee of the National Institute of Neurological Disorders and Stroke (Animal protocol number 1253–17). Oocytes were removed surgically and incubated with agitation for 1 hr in a solution containing (in mM) 82.5 NaCl, 2.5 KCl, 1 MgCl2, 5 HEPES, pH 7.6 (with NaOH), and collagenase (2 mg/ml; Worthington Biochemical, Lakewood, NJ). Defolliculated oocytes were injected with cRNA for each of the constructs and incubated at 17°C in a solution containing (in mM) 96 NaCl, 2 KCl, 1 MgCl2, 1.8 CaCl2, 5 HEPES, pH 7.6 (with NaOH), and gentamicin (50 μg/ml, GIBCO-BRL, Gaithersburg, MD). Oocyte membrane voltage was controlled using an OC-725C oocyte clamp (Warner Instruments, Hamden, CT). Data were filtered at 1–3 kHz and digitized at 20 kHz using pClamp software (Molecular Devices, Sunnyvale, CA) and a Digidata 1440A digitizer (Axon Instruments). Microelectrode resistances were 0.1–1 MΩ when filled with 3 M KCl. For recording TRP channel currents, the external recording solution contained (in mM) 100 KCl, 10 HEPES, pH 7.6 (with KOH). […]
as §1

[3] = target: T1, TRPV3-6M + 5PM (Mus musculus, UniProt Q8K424, A560T/A606V/F522S/F625L/F656I/F666Y/H523E/L557M/Q580E/V587L/W521Y); test: Two-electrode voltage clamp, TRPV3-6M + 5PM in oocytes; format: cell-based
T1 construct: expressed in transfected cells; host or cells: Xenopus laevis oocytes
T1 sequence (Q8K424 1-791 W521Y/F522S/H523E/L557M/A560T/Q580E/V587L/A606V/F625L/F656I/F666Y): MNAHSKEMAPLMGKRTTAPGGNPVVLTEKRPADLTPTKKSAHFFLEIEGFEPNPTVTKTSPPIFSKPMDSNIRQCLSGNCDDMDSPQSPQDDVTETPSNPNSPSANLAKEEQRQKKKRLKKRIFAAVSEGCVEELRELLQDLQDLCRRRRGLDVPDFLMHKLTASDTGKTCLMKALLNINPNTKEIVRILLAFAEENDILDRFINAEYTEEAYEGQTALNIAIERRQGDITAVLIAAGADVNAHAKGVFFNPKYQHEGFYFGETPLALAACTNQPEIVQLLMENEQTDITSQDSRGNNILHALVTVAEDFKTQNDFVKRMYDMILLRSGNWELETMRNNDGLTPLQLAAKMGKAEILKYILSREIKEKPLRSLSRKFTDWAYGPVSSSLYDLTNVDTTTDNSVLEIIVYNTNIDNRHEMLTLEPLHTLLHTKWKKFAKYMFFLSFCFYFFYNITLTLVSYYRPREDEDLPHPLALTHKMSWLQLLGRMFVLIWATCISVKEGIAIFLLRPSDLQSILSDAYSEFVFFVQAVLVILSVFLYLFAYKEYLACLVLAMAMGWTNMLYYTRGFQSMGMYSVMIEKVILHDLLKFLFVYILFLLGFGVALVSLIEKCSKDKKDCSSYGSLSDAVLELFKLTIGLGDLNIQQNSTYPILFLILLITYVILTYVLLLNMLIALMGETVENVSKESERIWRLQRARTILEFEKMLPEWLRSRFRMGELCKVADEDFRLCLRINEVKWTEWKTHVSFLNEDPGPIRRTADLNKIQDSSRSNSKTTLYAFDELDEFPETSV
Procedure: All channel constructs were expressed in Xenopus laevis oocytes and studied using the two-electrode voltage clamp technique (TEVC) following 1–4 days of incubation after cRNA injection. The animal care and experimental procedures were performed in accordance with the Guide for the Care and Use of Laboratory Animals and were approved by the Animal Care and Use Committee of the National Institute of Neurological Disorders and Stroke (Animal protocol number 1253–17). Oocytes were removed surgically and incubated with agitation for 1 hr in a solution containing (in mM) 82.5 NaCl, 2.5 KCl, 1 MgCl2, 5 HEPES, pH 7.6 (with NaOH), and collagenase (2 mg/ml; Worthington Biochemical, Lakewood, NJ). Defolliculated oocytes were injected with cRNA for each of the constructs and incubated at 17°C in a solution containing (in mM) 96 NaCl, 2 KCl, 1 MgCl2, 1.8 CaCl2, 5 HEPES, pH 7.6 (with NaOH), and gentamicin (50 μg/ml, GIBCO-BRL, Gaithersburg, MD). Oocyte membrane voltage was controlled using an OC-725C oocyte clamp (Warner Instruments, Hamden, CT). Data were filtered at 1–3 kHz and digitized at 20 kHz using pClamp software (Molecular Devices, Sunnyvale, CA) and a Digidata 1440A digitizer (Axon Instruments). Microelectrode resistances were 0.1–1 MΩ when filled with 3 M KCl. For recording TRP channel currents, the external recording solution contained (in mM) 100 KCl, 10 HEPES, pH 7.6 (with KOH). Experiments were performed at room temperature (~22°C), except as indicated otherwise. […] Current time courses were obtained by stepping membrane voltage every 2 s from a holding potential of 0 mV to either −60 or +60 mV for 100 ms, and plotting the mean steady-state current at the end of each voltage step as a function of total recording time. I-V relations were obtained similarly, but voltage was stepped every 2 s to a different value, in 10 mV increments and starting at −60 mV.

| Compound | channel activation (current response) [1] | channel activation (current response) ([2]; room temperature, ±60 mV) | RTx activation on cooling ([2]; temperature decreased to 10°C) | dissociation of RTx [3] | response to RTx compared with maximal response to 2-APB ([3]; RTx 100 nM, 2-APB 3 mM, +60 mV) |
| --- | --- | --- | --- | --- | --- |
| NCCOB(c1ccccc1)c1ccccc1 [2-APB, 2-aminoethoxydiphenyl borate] | strong responses | – | – | – | – |
| C=C(C)[C@]12C[C@@H](C)[C@@]34O[C@](Cc5ccccc5)(O[C@@H]1[C@@H]3C=C(COC(=O)Cc1ccc(O)c(OC)c1)C[C@]1(O)C(=O)C(C)=C[C@@H]41)O2 [RTx, resiniferatoxin] | – | robustly activated | reduced to baseline levels | exceedingly slow | similar |
